Measured values: patent US20240228474A1, “ANTIBACTERIAL COMPOUND” (DISCUVA LIMITED, priority 2021, published 2024)
≈ marks a conversion by molar mass, not a printed value.

Tests used:
[1] = tested on: Escherichia coli (100 isolates); experiment: MIC90 by broth microdilution (EUCAST), 100 isolates; format: cell-based
Protocol: (§1) Minimum Inhibitory Concentration (MIC90) versus 100 isolates of Escherichia coli and Klebsiella pneumonia were determined. The Minimum Inhibitory Concentration at which 90% of the isolates (strains) are inhibited (MIC90) were measured by broth microdilution in line with EUCAST susceptibility testing standards (www.eucast.org). Bacterial inocula were prepared at ca 1×10^6 CFU/mL by diluting 100-fold a 0.5 McFarland suspension. Antibacterial panels containing 50 μl of antibacterial solutions at 2× the final concentrations were diluted 2-fold with 50 μl of inoculum to give a final inoculum of ca 5×10^5 CFU/ml and desired test concentrations of antibacterial agents (0.03-64 μg/mL). The plates were incubated according to the guidelines of the Clinical and Laboratory Standards Institute (Clinical and Laboratory Standards Institute. Methods for Dilution Antimicrobial Susceptibility Tests for Bacteria That Grow Aerobically; Approved Standard-Eleventh Edition, CLSI document […], 11 Jan. 2018). The MIC90 (μg/ml) is the MIC value at which greater than or equal to 90% of the isolates (strains) within a test population are inhibited.

[2] = tested on: Klebsiella pneumonia (100 isolates); experiment: as above; format: cell-based
Protocol: as §1

[3] = Volume of distribution (Vss) from mouse plasma profiles; format: in vivo; settings: mice, 5 mg/kg IV bolus, 2 compartment model
Protocol: The volume of distribution (Vss) of compound (I) and comparative compounds (II) and (III) was determined from analysis of plasma concentration time profiles obtained from rodent species (mice), following 5 mg/kg IV bolus administration respectively. The volume of distribution was obtained by analysing the rodent plasma profiles for compound (I) and comparative compounds (II) and (III) using a 2 compartment IV bolus model in PK Solver (Excel). The volume of distribution data for compound (I) and comparative compound (II) was collected in separate experiments carried out on different days, and compared in Table 6.

[4] = tested on: 44 ligands (including receptors, transporters, ion channels, enzymes and kinases); experiment: In vitro safety pharmacology binding assays (CEREP profile); settings: 10 μM, 44 ligands tested
Protocol: In vitro pharmacology binding assays were carried out for compound (I), comparative compound (II) and comparative compound (III) to evaluate the percentage of inhibition against 44 ligands (including receptors, transporters, ion channels, enzymes and kinases) at a concentration of 10 μM of compound (I), comparative compound (II) or comparative compound (III). Compound binding was calculated as a percentage of inhibition of the binding of a radioactively labelled ligand specific for each target. Results showing an inhibition higher than 50% are considered to represent discernible effects of compound (I), comparative compound (II) or comparative compound (III). […] The in vitro pharmacology binding assays for compound (I) and comparative compounds (II) and (III) was carried out separately over different days, and compared in FIGS. 1a, 1b, 1c, and 1d.

[5] = tested on: Klebsiella pneumoniae ATCC 43816; experiment: Murine respiratory infection proof-of-concept study, IV bolus; format: in vivo
Protocol: Compound (I) and comparative compound (III) were evaluated in proof-of-concept studies in murine models for the treatment of a respiratory infection with Gram-negative bacteria of the order Enterobacterales, a bacteraemia or bloodstream infection with Gram-negative bacteria of the order Enterobacterales, and a urinary tract infection with Gram-negative bacteria of the order Enterobacterales. Each dot, triangle or square indicator represents a single mouse. LOD refers to the limit of detection of the bacteria. […] Each of the proof-of-concept studies was carried out separately. By vehicle is meant pharmaceutically acceptable carrier or excipient. For the proof-of-concept study for the treatment of a respiratory infection caused or exacerbated by Gram-negative bacteria of the order Enterobacterales, CD-1 mice were infected with Klebsiella pneumoniae ATCC 43816. Two hours after infection (‘pre-treatment’ in FIG. 2), a vehicle (20% hydroxypropyl β cyclodextrin) containing no compound (I) or comparative compound (III), or a vehicle (20% hydroxypropyl β cyclodextrin) containing compound (I) or comparative compound (III), was administered by IV bolus at 20 mg/kg, TID (8 hrs apart), over one day.

E. coli UT189 = experiment: Further murine urinary tract infection study, intravenous infusion; format: in vivo; settings: 96 h
Protocol: Compound (I) was evaluated in further proof-of-concept studies in murine models for the treatment of a respiratory infection with Gram-negative bacteria of the order Enterobacterales, and a urinary tract infection with Gram-negative bacteria of the order Enterobacterales. Each dot, triangle or square indicator represents a single mouse. LOD refers to the limit of detection of the bacteria. […] Each of the proof-of-concept studies was carried out separately. By vehicle is meant pharmaceutically acceptable excipient or carrier. For the further proof-of-concept study for the treatment of a urinary tract infection with Enterobacterales, female C3H/HeN mice were infected with E. coli UT189. Twenty-four hours after infection (‘pre-treatment’ in FIGS. 6a-c), mice were either treated with a vehicle control (20% hydroxypropyl β cyclodextrin) containing no compound (I), or a vehicle (20% hydroxypropyl β cyclodextrin) containing compound (I), administered by intravenous infusion for 1 hour (QD) with a dose of 20 mg/kg of compound (I). For some mice who received vehicle containing compound (I), an additional 1-hour continuous intravenous infusion was administered 5 hours after the time at which the first administration begun (BID, 5 hrs apart). The once or twice daily administration was continued for three days. For QD, administration took place between 24 to 25 hours, 48 to 49 hours, and 72 to 73 hours after infection, and for BID, administration took place between 24 to 25 hours, 29 to 30 hours, 48 to 49 hours, 53 to 54 hours, 72 to 73 hours and 77 to 78 hours after infection.

[6] = 1 h IV infusion 20 mg/kg BID (5 hrs apart) for three days
[7] = 1 h IV infusion 20 mg/kg QD for three days

MIC90 [1]: 1 µg/mL (≈ 2.55 µM) | MIC Range [1]: 0.12 to 4.00 µg/mL | MIC Range [2]: 0.25 to 8.00 µg/mL | MIC90 ([2]; Klebsiella pneumoniae): 2 µg/mL (≈ 5.1 µM) | Vd [3]: 19.7 L/kg
Compound: Cc1cnccc1-c1[nH]c(N)nc1-c1ccc2c(c1)N(C(=O)C(C)(C)N)CCO2 [Compound (I), 2-amino-1-(6-(2-amino-5-(3-methylpyridin-4-yl)-1H-imidazol-4-yl)-2,3-dihydro-4H-benzo[b][1,4]oxazin-4-yl)-2-methylpropan-1-one]
ligands with inhibition higher than 50% [4]: only a single ligand | reduction of bacterial burden in the lung compared to vehicle ([5]; CD-1 mice, IV bolus 20 mg/kg TID over one day, 26 h from initial infection): 6.24 log | more efficacious than comparative compound (III), lung ([5]; difference in log reduction, 26 h): 2 log | reduction of bacterial burden in the bladder compared to vehicle (E. coli UT189; [6]): 5.84 log | reduction of bacterial burden in the kidney compared to vehicle (E. coli UT189; [6]): 4.3 log | reduction of bacterial burden in the urine compared to vehicle (E. coli UT189; [6]): 5.87 log | reduction of bacterial burden in the bladder compared to vehicle (E. coli UT189; [7]): 5.01 log | reduction of bacterial burden in the kidney compared to vehicle (E. coli UT189; [7]): 3.17 log | bacterial burden in the bladder at end of study (E. coli UT189; BID (5 hrs apart)): below the limit of detection (LOD) | bacterial burden in the kidney at end of study (E. coli UT189; BID (5 hrs apart)): below the limit of detection (LOD) | bacterial burden in the urine at end of study (E. coli UT189; BID (5 hrs apart)): below the limit of detection (LOD) | bacterial burden in the bladder at end of study (E. coli UT189; QD): below the limit of detection (LOD) | bacterial burden in the urine at end of study (E. coli UT189; QD): below the limit of detection (LOD) | reduction of bacterial burden in the urine compared to vehicle (E. coli UT189; female C3H/HeN mice, 1 h IV infusion 20 mg/kg QD for three days): 4.86 log
